Experimental data: PMC8087809 (Cell Death & Disease, 2021)

Legend:
C57BL/6 mice = assay: Cardiotoxicity in C57BL/6 mice (echocardiography, serum enzymes, histopathology); assay type: in vivo, mouse; settings: 8 mg/kg i.p. every 2 days for 1 week
Description: On day 7, the mice were sacrificed after an echocardiography test to harvest the serum for biochemical estimations. Biochemical estimations, including alanine aminotransferase (ALT), aspartate transaminase (AST), lactic dehydrogenase (LDH), creatine kinase-MB (CK-MB), and creatine kinase (CK), were tested using an autoanalyzer (Siemens, USA). Freshly harvested cardiac tissue was fixed in 4% buffered formalin solution for 24 h and embedded in paraffin wax. Sections ([…] thick) were obtained from each sample and stained with H&E. Histologic observation was performed with a Nikon i55 optical microscope (Nikon Corporation, Japan).
In addition, CT-L activity recovered in a time-dependent manner, as previously discovered in vitro (Fig. 7B). […] The echocardiographic analysis was performed at baseline (day 0) and endpoint (day 7) (Fig. 7D). […] We also examined the levels of CK, CK-MB, LDH, ALT, and AST in the blood serum from the treated mice.

RPMI-8226 cells = assay: CCK-8 cell viability, RPMI-8226; assay type: cell-based; settings: Homo sapiens; RPMI-8226, 72h
Description: (§1) Cell viability was detected by Cell Counting Kit-8 (CCK-8) (Dojindo Laboratories, Japan). MM cells were seeded on 96-well plates and placed in an incubator for 24 h. After being treated with drugs for another 72 h, cell viability was examined using the CCK-8 reagent. The CellTiter-Glo Luminescent Cell Viability Assay Kit (Promega, USA) was used to determine the viability of CD138^+ cells and PBMCs. For flow cytometry, MM cells were seeded in 6-well plates and placed in an incubator for 24 h. Then, the MM cells were incubated with drugs for another 24 h and collected for flow cytometry analysis. The cell cycle was examined by flow cytometry using a propidium iodide (PI) staining assay kit (BD Biosciences, USA). Cell apoptosis was detected by flow cytometry using the Annexin V/PI Kit (BD Biosciences, USA).
(§2) The Cell Counting Kit-8 (CCK-8) assay was used for cell viability assessment. CCK-8 provided a highly water-soluble tetrazole salt, WST-8, which would produce a water-soluble orange formazan in the presence of dehydrogenase derived from living cells. The OD value was detected at 450 nm with a microplate analyzer to indirectly reflect the number of living cells. […] Among the four patients, patients 1 (Fig. 2E), 2 (Fig. 2F), and 3 (Fig. 2G) were newly diagnosed, and patient 4 (Fig. 2H) had experienced relapse after prior therapies.

[1] = tested on: proteasome CT-L activity in MM.1S cells; assay: Proteasome-Glo cell-based assay, CT-L activity in MM.1S cells; settings: read-out: IC50 of cellular proteasome CT-L activity, treated 1 h
Description: (§3) In vitro, the 20S proteasome activity of cells was detected by using the Proteasome-Glo Assay (Promega, USA) either after drug treatment for 4, 24, or 48 h in fresh medium.
(§4) Proteasome activity was measured by the Proteasome-Glo cell-based assay.

MM patients = settings: carfilzomib-treated MM patients ref 13, 14; cited from earlier work
six non-proteasomes = assay: Non-proteasome substrate-based assay (six non-proteasomes)
Description: A standard substrate-based assay of non-proteasome was performed as described (GenScript, China)[19].

hERG channels = target: T1, hERG channels (Homo sapiens, UniProt Q12809); assay: hERG whole-cell patch-clamp, tail current; assay type: cell-based
T1 construct: expressed in transfected cells; host or cells: HEK293T
T1 sequence (Q12809 whole entry): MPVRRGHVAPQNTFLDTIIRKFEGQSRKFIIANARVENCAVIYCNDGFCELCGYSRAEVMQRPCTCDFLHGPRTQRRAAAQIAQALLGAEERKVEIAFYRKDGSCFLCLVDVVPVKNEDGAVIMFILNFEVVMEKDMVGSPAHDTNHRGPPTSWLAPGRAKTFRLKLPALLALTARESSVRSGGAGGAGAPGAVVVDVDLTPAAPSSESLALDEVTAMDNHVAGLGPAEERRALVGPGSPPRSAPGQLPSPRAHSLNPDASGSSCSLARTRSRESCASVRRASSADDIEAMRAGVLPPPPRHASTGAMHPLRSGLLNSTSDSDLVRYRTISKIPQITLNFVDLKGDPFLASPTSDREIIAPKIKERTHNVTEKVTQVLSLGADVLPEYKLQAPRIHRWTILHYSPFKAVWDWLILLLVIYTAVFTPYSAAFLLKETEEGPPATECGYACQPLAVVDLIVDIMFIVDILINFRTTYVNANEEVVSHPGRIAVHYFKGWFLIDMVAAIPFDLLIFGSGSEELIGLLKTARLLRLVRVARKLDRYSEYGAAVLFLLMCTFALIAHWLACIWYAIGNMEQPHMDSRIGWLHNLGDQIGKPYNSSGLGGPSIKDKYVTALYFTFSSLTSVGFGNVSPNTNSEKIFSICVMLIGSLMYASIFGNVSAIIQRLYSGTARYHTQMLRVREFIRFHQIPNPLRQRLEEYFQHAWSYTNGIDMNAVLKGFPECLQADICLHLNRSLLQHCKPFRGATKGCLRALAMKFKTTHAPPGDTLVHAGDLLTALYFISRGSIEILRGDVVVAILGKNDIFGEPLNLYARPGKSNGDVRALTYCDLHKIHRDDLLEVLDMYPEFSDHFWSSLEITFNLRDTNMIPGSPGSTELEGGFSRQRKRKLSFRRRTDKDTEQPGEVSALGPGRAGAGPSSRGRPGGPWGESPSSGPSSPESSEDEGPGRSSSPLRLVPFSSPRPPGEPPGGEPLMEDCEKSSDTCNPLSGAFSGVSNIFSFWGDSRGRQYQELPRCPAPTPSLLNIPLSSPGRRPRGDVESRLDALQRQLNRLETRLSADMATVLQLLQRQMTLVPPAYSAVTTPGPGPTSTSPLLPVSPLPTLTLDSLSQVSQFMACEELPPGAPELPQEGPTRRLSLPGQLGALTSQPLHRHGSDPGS
Description: The activation of the hERG pathway was detected by the whole-cell patch-clamp technique at room temperature (22 ± 1 °C) using an AXON 200B amplifier through a digitizer (DigiData 1440A, Molecular Devices, USA) controlled by pClamp software (v10.0) as previously described.
Human ether-à-go-go-related gene (hERG) K^+ channels are vital in cardiac repolarization[28],[29]. Drug cardiotoxicity can be partially attributed to hERG channel dysfunction that leads to long QT syndrome and ventricular action potential delay. […] The real-time current was measured during drug treatment. Figure 8A presents the command waveform of the tail-current protocol under voltage-clamp mode.

[2] = tested on: NF-κB activity in NF-κB-luc HEK293T cells; assay: NF-κB luciferase reporter assay, TNF-α stimulated; settings: Homo sapiens, HEK-293T, read-out: IC50 of NF-κB luciferase activity
Description: The plasmids pcDNA3.1-(+)-NF-κB and pcDNA3.1-(+)-Renilla were mixed with Lipofectamine 2000 (Invitrogen, USA) and then transfected into HEK293T cells (Institute of Biochemistry and Cell Biology, China). […] The activity of NF-κB was examined by the Dual-Luciferase® Reporter Assay System (Promega, USA) as previously described[22].
Activation of NF-κB was determined by luciferase reporter gene assay using stably transfected NF-κB-luc HEK293T cells. The NF-κB signaling pathway was activated by TNF-α stimulation.

[3] = tested on: proteasome CT-L activity in RPMI-8226 cells; assay: Proteasome-Glo cell-based assay, CT-L activity in RPMI-8226 cells; settings: read-out: IC50 of cellular proteasome CT-L activity, treated 1 h
Description: as §3, §4

[4] = tested on: MM patient-derived CD138+ cells; assay: Viability of MM patient-derived BM CD138+ cells; assay type: cell-based; settings: Homo sapiens, primary MM cell
Description: Human MM.1S (dexamethasone-sensitive), MM.1R (dexamethasone-resistant), ARP1, and RPMI-8226 MM cell lines were obtained from American Type Culture Collection (ATCC, Rockville, USA) and cultured in RPMI-1640 medium (Gibco-BRL, USA) supplemented with 10% fetal bovine serum (Gibco, USA) and 1% penicillin/streptomycin (Gibco, USA). All the cells are maintained in 5% CO2 at 37 °C and have been tested for mycoplasma contamination. Peripheral blood mononuclear cells (PBMCs) were collected from healthy volunteers. BM mononuclear cells and PBMCs from MM patients were isolated by Ficoll-Hypaque density-gradient separation. CD138^+ cells were isolated from BM mononuclear cells of MM patients using CD138^+ Micro Beads and the Auto MACS magnetic cell sorter (Miltenyi Biotech, Germany). All primary samples were obtained with informed consent from patients with MM or healthy donors according to the Declaration of Helsinki. This study was approved by the Review Committee of the First Affiliated Hospital of Nanjing Medical University.
as §1, §2

MM.1R cells = assay: CCK-8 cell viability, MM.1R; assay type: cell-based; settings: Homo sapiens, 72h
Description: as §1, §2

MM.1S cells = assay: CCK-8 cell viability, MM.1S; assay type: cell-based; settings: Homo sapiens, MM1.S, 72h
Description: as §1, §2

[5] = tested on: proteasome CT-L activity in MM.1R cells; assay: Proteasome-Glo cell-based assay, CT-L activity in MM.1R cells; settings: read-out: IC50 of cellular proteasome CT-L activity, treated 1 h
Description: as §3, §4

ARP1 xenografts = assay: ARP1 xenograft in BALB/c nude mice; assay type: in vivo, mouse; settings: i.v. 4 mg/kg twice a week
Description: BALB/c nude mice (male, 4–6 weeks old) were purchased from Ziyuan Co., Ltd. (Hangzhou, China). ARP1 cells (1 × 10^6 cells in 100 μl PBS) were injected subcutaneously into the hindquarters of each mouse. […] All mice were observed every 2 days for at least 7 weeks. Tumor growth was assessed by calculating volume according to the following equation: volume = a × b^2/2, where a is the widest length and b is the perpendicular diameter. On the appointed day, fifteen tumor tissue samples were removed from the mice for hematoxylin and eosin (H&E) staining and stained with Ki67 and CD138 antibodies. Investigators were blinded to the group allocation during measuring tumor size, weight, and performing staining. All animal procedures were approved by the Institutional Review Board of the College of Life Science, Nanjing Normal University (Approval No. IACUC-20200506).
We next validated the anti-tumor role of D395 in vivo. Human MM cell line ARP1 (1 × 10^6 cells per mouse) were injected subcutaneously into BALB/c nude mice. […] The medication was given twice a week. Tumor size was measured every 3 days (Fig. 5A). […] On the endpoint day, all the mice were sacrificed, and tumors were collected (Fig. 5B, C). […] Tumor tissues were sampled for immunohistochemistry. The tissues were stained for Ki67, a cell proliferation marker, to show tumor growth (Fig. 5E).

ARP1 cells = assay: CCK-8 cell viability, ARP1; assay type: cell-based; settings: Homo sapiens, ARP-1; ARP1, 72h
Description: as §1, §2

RPMI-8226 BTZ-DR cells = assay: Annexin V flow cytometry in bortezomib-resistant cells; assay type: cell-based, human
Description: as §1
It is known that drug resistance limits the application of proteasome inhibitors in clinical treatment.

Question: For `CC(C)C[C@H](NC(=O)[C@H](CCc1ccccc1)NC(=O)CN1CCOCC1)C(=O)N[C@@H](Cc1ccccc1)C(=O)N[C@@H](CC(C)C)C(=O)[C@@]1(C)CO1` [Carfilzomib], which “Heart histological analysis (H&E)” value (C57BL/6 mice) is on record?
Answer: myocardial degeneration and myocardial fiber damage with cytoplasmic vacuoles

Question: What about the “FS% and EF% (echocardiography)” value (C57BL/6 mice; day 7) of the same compound?
Answer: the FS% and EF% decreased in both the carfilzomib and D395 groups

Question: What about the “Serum CK-MB and LDH levels” value (C57BL/6 mice; day 7) of the same compound?
Answer: increased in the carfilzomib group

Question: What about the “LVEDD, LVESD, LVEDV, LVESV” value (C57BL/6 mice; versus control group) of the same compound?
Answer: No significant differences in LVEDD, LVESD, LVEDV, or LVESV

Question: What about the IC50 (RPMI-8226 cells) of the same compound?
Answer: 13.5 ± 1.9 nM

Question: And the IC50 [1]?
Answer: 13.8 nM

Question: And the Incidence of cardiotoxicity (MM patients)?
Answer: 5–10%

Question: What about the “Inhibitory effect on six non-proteasomes” value (six non-proteasomes) of the same compound?
Answer: neither carfilzomib nor D395 exerted an inhibitory effect

Question: And the IC50 (hERG channels)?
Answer: 25700 nM

Question: What about the IC50 [2] of the same compound?
Answer: 35.7 nM

Question: And the IC50 [3]?
Answer: 25.8 nM

Question: And the IC50 ([4]; 24 h, patient 1 (newly diagnosed))?
Answer: 56.5 ± 2.5 nM

Question: And the IC50 ([4]; 24 h, patient 2 (newly diagnosed))?
Answer: 354 ± 19.4 nM

Question: And the IC50 ([4]; 24 h, patient 3 (newly diagnosed))?
Answer: 444 ± 48 nM

Question: What about the IC50 ([4]; 24 h, patient 4 (relapsed)) of the same compound?
Answer: 38 ± 5.8 nM

Question: And the IC50 ([4]; 36 h, patient 2 (newly diagnosed))?
Answer: 339 ± 22.8 nM

Question: What about the IC50 ([4]; 36 h, patient 3 (newly diagnosed)) of the same compound?
Answer: 288 ± 19.5 nM

Question: And the IC50 (MM.1R cells)?
Answer: 11 ± 0.9 nM

Question: What about the IC50 (MM.1S cells) of the same compound?
Answer: 7 ± 0.9 nM

Question: And the IC50 [5]?
Answer: 18.1 nM

Question: What about the Tumor growth (ARP1 xenografts; ARP1 xenograft) of the same compound?
Answer: grew slower than those in the control group

Question: What about the “Weight of the mice” value (ARP1 xenografts; treatment period) of the same compound?
Answer: the weight of the mice did not change

Question: And the “CT-L, C-L, and T-L activities in tumor samples” value (ARP1 xenografts; tumors at endpoint)?
Answer: lower in the carfilzomib and D395 groups than in the control group

Question: And the IC50 (ARP1 cells)?
Answer: 35.6 ± 5.1 nM

Question: Which “Apoptotic population / cell death” value (RPMI-8226 BTZ-DR cells) does the source give for `CC(C)C[C@H](NC(=O)[C@H](Cc1ccccc1)NC(=O)c1cnccn1)B(O)O` [bortezomib, Bortezomib] here?
Answer: lower than that of the RPMI-8226 WT group
